Among the data in PubChem BioAssay (NCI) are GI50 and TGI values, retold here.

Some test systems named below: NCI-H522 lung; T-47D breast; LOX IMVI melanoma; SNB-19 CNS; A549 NSCLC; HCT-116 colon; BT-549 breast; NCI-H460 lung; HOP-62 NSCLC; K-562 leukemia.
Experiment in all cases: NCI tumour cell line growth inhibition, 48 h

Molecules are shown by their SMILES.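 Grown in 96-well plates, cells were treated for 48 hours with each compound at five concentrations. Insufficient inhibition: endpoint recorded as highest concentration tested. At the GI50, growth is halved. The concentration for full growth arrest is given as TGI.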

`C=C(C)[C@@H]1CC[C@]2(C(N)=O)CC[C@]3(C)[C@H](CC[C@@H]4[C@@]5(C)CC[C@H](O)C(C)(C)[C@@H]5CC[C@]43C)[C@@H]12`: the GI50 is 3.13 µM with NCI-H522 lung; 4.55 µM in the assay on T-47D breast; 1.77 µM in the assay on LOX IMVI melanoma; 4.57 µM in the assay with SNB-19 CNS; 2.11 µM in the assay on A549 NSCLC; 1.97 µM with HCT-116 colon. The GI50 in the assay on BT-549 breast is 3.99 µM; with NCI-H460 lung, 2.12 µM; in the assay on HOP-62 NSCLC, 3.21 µM; with K-562 leukemia, 3.04 µM. The TGI worked out at 16.3 µM in the assay with NCI-H522 lung; 26.9 µM in the assay with T-47D breast; 3.23 µM in the assay on LOX IMVI melanoma; 34.3 µM with SNB-19 CNS; 5.39 µM in the assay on A549 NSCLC; 3.96 µM in the assay with HCT-116 colon. For the same compound, the TGI in the assay on BT-549 breast was found to be 19.7 µM; in the assay with NCI-H460 lung, 4.84 µM; in the assay with HOP-62 NSCLC, 12.8 µM; in the assay on K-562 leukemia, 19.4 µM.

Consider `CO/[N+]([O-])=C\C(=O)N/C=C/C(=O)O`, for which the TGI with NCI-H522 lung, in the assay with T-47D breast, with LOX IMVI melanoma, in the assay on SNB-19 CNS, with HCT-116 colon and with BT-549 breast was more than 100 µM in each case. Further, the TGI in the assay with NCI-H460 lung, in the assay on HOP-62 NSCLC and in the assay with K-562 leukemia was more than 100 µM each time.

As for `COc1ccccc1/C=C/C(=O)c1c(O)cc2occc2c1OC`, the GI50 in the assay on NCI-H522 lung was more than 100 µM; in the assay with T-47D breast it was 55.9 µM; in the assay with LOX IMVI melanoma, 30.1 µM; in the assay with SNB-19 CNS, 30.8 µM; with A549 NSCLC, more than 100 µM; in the assay with HCT-116 colon, 40.4 µM. For the same compound, the GI50 is 28.2 µM in the assay on BT-549 breast, more than 100 µM with NCI-H460 lung and 19.3 µM in the assay with HOP-62 NSCLC. The TGI in the assay with NCI-H522 lung, in the assay on T-47D breast, in the assay on LOX IMVI melanoma, in the assay with SNB-19 CNS, with A549 NSCLC and in the assay with HCT-116 colon was more than 100 µM throughout. In addition, the results for the TGI with BT-549 breast, in the assay with NCI-H460 lung and in the assay with HOP-62 NSCLC were more than 100 µM, more than 100 µM and 43.9 µM, respectively.

For the compound `COc1cc2c3c(c4ccc(OC)c(OC)c4c2cc1OC)CN1CCC[C@@H]1C3`, the TGI in the assay on NCI-H522 lung stood at 0.792 µM; in the assay with LOX IMVI melanoma it was 0.384 µM; with SNB-19 CNS, 0.0826 µM; in the assay with HCT-116 colon it was 3.1 µM; in the assay on BT-549 breast it was 2.36 µM; with NCI-H460 lung it was 2.09 µM. Moreover, the values for the TGI in the assay with HOP-62 NSCLC and in the assay on K-562 leukemia were 39.8 µM and more than 100 µM, respectively.

Turning to `CC(C)CC1C(=O)N2CCC[C@H]2C2(O)O[C@](NC(=O)C3C=C4c5cccc6[nH]c(Br)c(c56)C[C@H]4N(C)C3)(C(C)C)C(=O)N12` (stereo partly specified), the GI50 in the assay with T-47D breast is 2.9 µM; in the assay with LOX IMVI melanoma it was 21.6 µM; with A549 NSCLC it was 4.72 µM; in the assay on BT-549 breast it was 11.7 µM; in the assay with NCI-H460 lung, 6.6 µM; in the assay on K-562 leukemia, 6.17 µM. In addition, the TGI in the assay with T-47D breast, in the assay with LOX IMVI melanoma, with SNB-19 CNS, in the assay with A549 NSCLC, in the assay on HCT-116 colon and in the assay with BT-549 breast was more than 100 µM throughout. Further, the TGI in the assay on NCI-H460 lung, in the assay with HOP-62 NSCLC and with K-562 leukemia was more than 100 µM in each case.

As to `NCCCCCCCCn1c2c(c3ccccc3c1=O)C(=O)c1ccccc1-2`, the GI50 with NCI-H522 lung is 2.46 µM; in the assay on T-47D breast, 4.97 µM; with LOX IMVI melanoma, 3.64 µM; in the assay on SNB-19 CNS it was 5.9 µM; in the assay on A549 NSCLC, 8.93 µM; in the assay with BT-549 breast, 5.18 µM. Moreover, the GI50 with NCI-H460 lung was 3.66 µM; in the assay with HOP-62 NSCLC, 2.13 µM; in the assay with K-562 leukemia, 1.87 µM. For the same compound, the TGI was 6.37 µM with NCI-H522 lung; 36.6 µM in the assay on T-47D breast; more than 100 µM with LOX IMVI melanoma; 80.8 µM with SNB-19 CNS; 50.8 µM in the assay with A549 NSCLC; 23.3 µM in the assay with BT-549 breast. Also, the TGI with NCI-H460 lung was found to be 24.8 µM; in the assay with HOP-62 NSCLC, 4.69 µM; in the assay on K-562 leukemia it was 3.67 µM.

`O=C(NCCc1ccccc1)C(c1ccccc1)(c1ccccc1)c1ccccc1`: the GI50 was 13.1 µM with NCI-H522 lung; 30.4 µM in the assay on T-47D breast; 7.27 µM in the assay on SNB-19 CNS; 1.75 µM in the assay with A549 NSCLC; 1.95 µM in the assay with HCT-116 colon; 5.99 µM in the assay on BT-549 breast. In addition, the GI50 in the assay with NCI-H460 lung was 31.5 µM; in the assay on HOP-62 NSCLC it was 7.1 µM; with K-562 leukemia, 44.9 µM. Further, the TGI in the assay on NCI-H522 lung was 38.1 µM; in the assay with T-47D breast it was more than 100 µM; in the assay with SNB-19 CNS, more than 100 µM; in the assay on A549 NSCLC, 5.59 µM; in the assay with HCT-116 colon, more than 100 µM; in the assay on BT-549 breast it was 44.9 µM. Besides, the TGI in the assay with NCI-H460 lung, in the assay with HOP-62 NSCLC and in the assay on K-562 leukemia was more than 100 µM in each case.

For `CCC(=O)C1(c2ccccc2)CCN(C)CC1`, the TGI in the assay with T-47D breast, with SNB-19 CNS, in the assay with A549 NSCLC, in the assay with HCT-116 colon, in the assay with NCI-H460 lung and with HOP-62 NSCLC was more than 100 µM throughout. In the assay on K-562 leukemia, this compound yielded a TGI of more than 100 µM.

As for `CCN(CC)c1ccc(C2CC(c3cc(OC)c(OC)c(OC)c3)=NN2)cc1` (stereo unspecified), the GI50 is 0.295 µM in the assay on NCI-H522 lung; 0.83 µM in the assay on LOX IMVI melanoma; 0.636 µM with SNB-19 CNS; 0.591 µM with A549 NSCLC; 0.744 µM in the assay on HCT-116 colon; 1.03 µM in the assay on BT-549 breast. Also, the GI50 with NCI-H460 lung is 0.331 µM; in the assay with HOP-62 NSCLC, 0.456 µM; in the assay with K-562 leukemia, 0.336 µM. The TGI was 5.18 µM with NCI-H522 lung; more than 42 µM in the assay with LOX IMVI melanoma; more than 100 µM in the assay on SNB-19 CNS; more than 32.2 µM in the assay with A549 NSCLC; more than 100 µM in the assay on HCT-116 colon; more than 22.9 µM in the assay with BT-549 breast. The TGI in the assay with NCI-H460 lung was 11.8 µM; in the assay on HOP-62 NSCLC, more than 21.1 µM; with K-562 leukemia it was more than 37.6 µM.
